# Measured values published in patent US20180298024A1, “CORTISTATIN ANALOGS AND USES THEREOF” (President and Fellows of Harvard College, priority 2015, published 2018).
# Where “and” joins values, the source holds several entries; their conditions need not be identical. Equal values may be shown once. Read-outs that look alike come from different tables or passages of the source.
# Legend:
# [1] = TurboSol solubility evaluation in physiological saline; type: physicochemical; conditions: HB-PS+0.3% DMSO
# HEL = experiment: Half-maximal growth inhibition (GI50), HEL; type: cell-based; conditions: Homo sapiens, 240 h, AML, erythroleukemia, JAK2V617F, read-out: GI50 (nM), day 10
# Description: (§1) Compounds A, B, C, D, and F were tested against various cell lines to probe their broad utility against cancer. Cortistatin A (CA) was also tested against the cell lines in a head to head fashion.
# SKNO-1 = experiment: Half-maximal growth inhibition (GI50), SKNO-1; type: cell-based; conditions: Homo sapiens, 240 h, AML, M2, RUNX1-RUNX1T1, read-out: GI50 (nM), day 10
# Description: as §1
# [2] = Pharmacokinetic profile in mice (plasma, LC-MS/MS); conditions: for ½ life: CD-1 mice
# Description: Formulation correction for salt content was not required for this study. Materials were vortexed and sonicated at room temperature following addition of vehicle. The solutions were maintained at ambient temperature stirring in the dark for at least 30 minutes prior to dose administration. The formulations were then vortexed and sonicated briefly to help ensure solubility.
# Mice were selected from the Testing Facility's rodent colony. The animals were enrolled in the study based on acceptable health as determined by Testing Facility personnel on the day of test article administration. Animals were held in environmental acclimation for at least 48 hours (±6 hours) prior to dosing. Animals were maintained at temperatures between 16-26° C. (62-78° F.) with the humidity range between 30-70%. Animals in all groups were fasted overnight and food was returned 4 hours following dosing. Water was provided ad libitum throughout the study.
# Whole blood samples for plasma were either collected from each animal by either direct vein puncture of the submandibular vein (survival blood collection) or by cardiac puncture following euthanasia with CO2 (terminal blood collection). […] Following collection, whole blood was placed into a tube containing K2EDTA and immediately placed on wet ice until processed for plasma. Whole blood samples were centrifuged at 2200×g for 10 minutes in a refrigerated centrifuge (5±3° C.) to isolate plasma. The samples were transferred to individual polypropylene containers and immediately placed on dry ice before storage at −70±10° C. until analysis. Plasma collected from undosed spare animals was pooled and analyzed as well.
# Once collected the mouse plasma studies were quantitated using LCMS/MS spectroscopy to determine the concentration of compound. […] Eight calibration standards containing the analyte and internal standard imipramine were prepared and analyzed at the beginning and at the end of the sequence. A calibration curve was generated and sample concentrations calculated using the Quantitation software MassHunter.
# CDK8 = CDK8 (Homo sapiens, UniProt P49336); experiment: CDK8 IC50 determination (Example 9); type: biochemical
# [3] = tested on: Human AML cell line MV4;11; experiment: MV4;11 disseminated leukemia model (bioluminescence); type: in vivo, NSG mice
# CDK8/Cyclin C = biological target: T1, CDK8/Cyclin C (Homo sapiens, UniProt P49336); experiment: 33PanQinase radiometric kinase assay, CDK8/Cyclin C; type: biochemical; conditions: read-out: percent inhibition of CDK8/Cyclin C
# T1 construct: purchased ProQinase; host or cells: Sf9 insect cells or E. coli
# Description: A radiometric protein kinase assay (33PanQinase Activity Assay) was used for measuring the kinase activity of the 320 protein kinases. All kinase assays were performed in 96-well FlashPlates™ from Perkin Elmer (Boston, Mass., USA) in a 50 μl reaction volume. The reaction cocktail was pipetted in 4 steps in the following order: • 1. 10 μl of non-radioactive ATP solution (in H2O) • 2. 25 μl of assay buffer/[γ-33P]-ATP mixture • 3. 5 μl of test sample in 10% DMSO • 4. 10 μl of enzyme/substrate mixture
# All PKC assays (except the PKC-mu and the PKC-nu assay) additionally contained 1 mM CaCl2, 4 mM EDTA, 5 μg/ml phosphatidylserine and 1 μg/ml 1,2-dioleyl-glycerol.
# The CAMKID, CAMK2A, CAMK2B, CAMK2D, CAMK4, CAMKK1, CAMKK2, DAPK2, EEF2K, MYLK, MYLK2 and MYLK3 assays additionally contained 1 μg/ml Calmodulin and 0.5 mM CaCl2). The PRKG1 and PRKG2 assays additionally contained 1 μM cGMP. The DNA-PK assay additionally contained 2.5 μg/ml DNA. The protein kinase reaction cocktails were incubated at 30° C. for 60 minutes. The reaction was stopped with 50 μl of 2% (v/v) H3PO4, plates were aspirated and washed two times with 200 μl 0.9% (w/v) NaCl. Incorporation of 33Pi (counting of “cpm”) was determined with a microplate scintillation counter (Microbeta, Wallac). All protein kinase assays were performed with a BeckmanCoulter Biomek 2000/SL robotic system.
# All protein kinases provided by ProQinase were expressed in Sf9 insect cells or in E. coli as recombinant GST-fusion proteins or His-tagged proteins, either as full-length or enzymatically active fragments. All kinases were produced from human cDNAs and purified by either GSHaffinity chromatography or immobilized metal. Affinity tags were removed from a number of kinases during purification. The purity of the protein kinases was examined by SDSPAGE/Coomassie staining, the identity was checked by mass spectroscopy.
# For each kinase, the median value of the cpm of three wells was defined as “low control” (n=3). This value reflects unspecific binding of radioactivity to the plate in the absence of a protein kinase but in the presence of the substrate. Additionally, for each kinase the median value of the cpm of three other wells was taken as the “high control”, i.e. full activity in the absence of any inhibitor (n=3). The difference between high and low control of each enzyme was taken as 100% activity. As part of the data evaluation the low control of each kinase was subtracted from the high control value as well as from their corresponding “compounds values”. The residual activity (in %) for each compounds well was calculated by using the following formula:
# Res. Activity (%)=100×[(signal of compounds−low control)/(high control−low control)]
# [4] = biological target: hERG (human ether-à-go-go-related gene) potassium channel (Homo sapiens, UniProt Q12809); experiment: in vitro
# Description: (§2) The in vitro effects of compounds A, B, C, D, E, and F on the hERG (human ether-à-go-go-related gene) potassium channel current (a surrogate for IKr, the rapidly activating, delayed rectifier cardiac potassium current) expressed in mammalian cells were evaluated at room temperature using the QPatch HT (Sophion Bioscience A/S, Denmark), an automatic parallel patch clamp system. The test articles were evaluated at 1 μM, 3 μM, […] and 30 μM. Each test article concentration was tested in at least three cells. The duration of exposure to each test article concentration was a minimum of 3 minutes.
# hERG potassium channel = hERG potassium channel (Homo sapiens, UniProt Q12809); experiment: in vitro; conditions: human
# Description: as §2
# MV4; 11 = experiment: Half-maximal growth inhibition (GI50), MV4; 11; type: cell-based; conditions: Homo sapiens, 240 h, AML, M5, MLL-AF4, read-out: GI50 (nM), day 10
# Description: as §1
# [5] = CD-1, mouse, plasma, iv, 3 mg/kg
# [6] = CD-1, mouse, plasma, po, 10 mg/kg
# [7] = Individual Data Points (% Inhibition), hERG
# CDK8, sequence (P49336 whole entry): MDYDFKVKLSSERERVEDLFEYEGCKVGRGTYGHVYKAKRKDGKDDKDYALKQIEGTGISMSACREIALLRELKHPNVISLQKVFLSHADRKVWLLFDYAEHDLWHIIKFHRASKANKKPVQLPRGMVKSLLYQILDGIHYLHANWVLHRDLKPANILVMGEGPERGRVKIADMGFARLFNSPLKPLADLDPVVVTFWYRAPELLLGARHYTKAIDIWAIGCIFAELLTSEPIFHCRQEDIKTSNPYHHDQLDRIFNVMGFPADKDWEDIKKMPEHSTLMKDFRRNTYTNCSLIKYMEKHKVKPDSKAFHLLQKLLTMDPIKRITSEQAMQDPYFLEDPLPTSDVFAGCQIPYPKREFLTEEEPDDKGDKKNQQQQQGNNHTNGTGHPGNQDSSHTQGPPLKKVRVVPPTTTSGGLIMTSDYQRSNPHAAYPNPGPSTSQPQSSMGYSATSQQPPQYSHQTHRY
# CDK8, sequence (P24863 whole entry partner): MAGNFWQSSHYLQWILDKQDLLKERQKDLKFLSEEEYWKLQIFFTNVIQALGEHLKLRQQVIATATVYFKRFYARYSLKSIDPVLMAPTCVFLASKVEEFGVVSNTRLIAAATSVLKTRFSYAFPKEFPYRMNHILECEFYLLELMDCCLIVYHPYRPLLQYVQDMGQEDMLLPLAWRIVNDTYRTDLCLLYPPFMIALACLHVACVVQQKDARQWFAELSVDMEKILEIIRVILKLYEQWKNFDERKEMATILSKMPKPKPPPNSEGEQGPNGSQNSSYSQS
# hERG potassium channel, sequence (Q12809 whole entry): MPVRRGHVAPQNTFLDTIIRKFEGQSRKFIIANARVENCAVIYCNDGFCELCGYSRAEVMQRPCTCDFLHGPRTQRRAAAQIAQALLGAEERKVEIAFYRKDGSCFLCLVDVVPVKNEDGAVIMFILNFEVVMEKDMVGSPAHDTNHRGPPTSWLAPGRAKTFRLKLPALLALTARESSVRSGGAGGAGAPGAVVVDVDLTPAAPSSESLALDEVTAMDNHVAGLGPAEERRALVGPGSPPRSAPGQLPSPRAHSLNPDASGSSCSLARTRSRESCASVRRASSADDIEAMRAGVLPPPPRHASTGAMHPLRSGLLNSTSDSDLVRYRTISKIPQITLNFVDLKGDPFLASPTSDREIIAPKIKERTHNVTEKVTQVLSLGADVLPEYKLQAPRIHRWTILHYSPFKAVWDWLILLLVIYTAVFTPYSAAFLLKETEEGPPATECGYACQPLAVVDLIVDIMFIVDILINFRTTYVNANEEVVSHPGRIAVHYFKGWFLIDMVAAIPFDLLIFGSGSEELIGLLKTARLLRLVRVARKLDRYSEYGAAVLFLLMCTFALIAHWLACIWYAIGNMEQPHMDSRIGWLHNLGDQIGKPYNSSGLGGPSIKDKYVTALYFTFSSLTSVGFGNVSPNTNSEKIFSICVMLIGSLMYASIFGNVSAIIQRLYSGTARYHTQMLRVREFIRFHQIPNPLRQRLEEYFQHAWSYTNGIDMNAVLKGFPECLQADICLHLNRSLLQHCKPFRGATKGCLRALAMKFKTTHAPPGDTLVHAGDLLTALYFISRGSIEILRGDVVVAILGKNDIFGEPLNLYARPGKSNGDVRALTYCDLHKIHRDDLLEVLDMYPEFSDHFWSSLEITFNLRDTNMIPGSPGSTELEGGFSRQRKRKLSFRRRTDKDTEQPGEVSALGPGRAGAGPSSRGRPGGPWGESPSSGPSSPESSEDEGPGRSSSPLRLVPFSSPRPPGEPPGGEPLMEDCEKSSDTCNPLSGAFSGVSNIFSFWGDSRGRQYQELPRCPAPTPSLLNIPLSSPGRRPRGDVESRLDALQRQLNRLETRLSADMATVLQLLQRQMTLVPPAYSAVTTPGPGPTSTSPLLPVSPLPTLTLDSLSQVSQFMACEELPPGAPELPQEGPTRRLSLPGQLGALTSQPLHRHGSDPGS
# hERG (human ether-à-go-go-related gene) potassium channel, sequence (Q12809 whole entry): as above
# T1 sequence (P49336 whole entry): as the sequence (P49336 whole entry) above
# T1 sequence (P24863 whole entry partner): as the sequence (P24863 whole entry partner) above
smiles,measurement,setting,value
C[C@]12CC=C3C=C4CC[C@@H](N5C[C@H](O)[C@@H](O)C5)C[C@]45CC[C@]3(O5)[C@@H]1CC[C@@H]2c1ccc2ccncc2c1 [Compound D],Average LSU (×1000),[1]; 1 μM,4.7 LSU (×1000)
same,Average LSU (×1000),[1]; 3 μM,6.4 LSU (×1000)
same,Average LSU (×1000),[1]; 10 μM,7.0 LSU (×1000)
same,Average LSU (×1000),[1]; 30 μM,16.6 LSU (×1000)
same,solubility in the TurboSol assay,[1],slightly insoluble at 30 μM concentrations
same,GI50,HEL,> 1000 nM
same,GI50,SKNO-1,< 1 nM
same,Vd,[2]; [5],5.41 L/kg
same,clearance,[2]; [5],18 mL/min/kg
same,AUC(0-inf),[2]; [6],1390 ng·h/mL
same,Cmax,[2]; [6],377 nM
same,Tmax,[2]; [6],2 h
same,bioavailability,[2]; [6],15%
same,concentration at 24 h,[2]; [6],7.6 nM
same,½ life,[2]; IV 3 mg/kg,6.60 h
same,½ life,[2]; PO 10 mg/kg,4.25 h
same,AUC(0-inf),"[2]; male, CD-1, mouse, plasma, iv, 3 mg/kg",2780 ng·h/mL
same,IC50,"CDK8; read-out: IC50 (nM) against CDK8, average",6.4 nM
same,IC50,"CDK8; tested in duplicate, read-out: IC50 against CDK8, single determinations",6.4 nM and 6.5 nM
same,Fold increase in leukemia burden 15 days after 1st dose,"[3]; 3 mpk IV 7on/2off/4on then IP 2on, NSG mice",1.1 fold
same,"in vivo anti-leukemic efficacy (bioluminescence, words)","[3]; compounds dosed at their highest tolerable dose, NSG mice",superior in vivo efficacy as compared to Compound F
same,Efficacy Rank Day 15,"[3]; each compound at its own dose/schedule, data from 3 separate studies",1
same,inhibition at 1 µM,CDK8/Cyclin C,> 50%
same,activity in the hERG assay,[4],single digit micromolar activity
same,IC50,"[4]; hERG IC50, QPatch HT, room temperature",6280 nM and 6300 nM
same,fold less hERG activity than Compound E,[4]; human,10-100 fold
same,inhibition at 1 µM,hERG potassium channel; [7],11.5%
same,inhibition at 3 µM,hERG potassium channel; [7],25.1%
same,inhibition at 10 µM,hERG potassium channel; [7],71.6%
same,inhibition at 30 µM,hERG potassium channel; [7],97.9%
same,inhibition at 1 µM,hERG potassium channel; Mean % hERG Inhibition,8%
same,inhibition at 3 µM,hERG potassium channel; Mean % hERG Inhibition,27.3%
same,inhibition at 10 µM,hERG potassium channel; Mean % hERG Inhibition,63.9%
same,inhibition at 30 µM,hERG potassium channel; Mean % hERG Inhibition,91.3%
same,GI50,MV4; 11,1.5 nM
